Activity calls are given as the source filed them. The calls are words filed in the database; no cut-off is given here.
How the values were obtained:
[1] = (§1) Inhibition of Clostridium perfringens ATCC 10543 sialidase Nan1 c-terminal catalytic domain using 4-methylumbelliferyl-alpha-D-N-acetylneuraminic acid sodium salt hydrate as substrate by fluorimetric analysis
Clostridium perfringens [2] = assay: as §1
Clostridium perfringens [3] = assay: Competitive inhibition of Clostridium perfringens ATCC 10543 sialidase Nan1 c-terminal catalytic domain using 4-methylumbelliferyl-alpha-D-N-acetylneuraminic acid sodium salt hydrate as substrate by Lineweaver-Burk and Dixon plot analysis
[4] = target: Neuraminidase (Influenza A virus (strain A/Brevig Mission/1/1918 H1N1) (Influenza Avirus (strain A/South Carolina/1/1918 H1N1)), UniProt Q9IGQ6); assay: (§2) Inhibition of recombinant influenza A virus H1N1 A/Bervig_Mission/1/18 sialidase activity using 4-methylumbelliferyl-alpha-D-N-acetylneuraminic acid sodium salt hydrate as substrate by fluorimetric analysis; design: species or system Influenza A virus (A/Brevig Mission/1/1918(H1N1))
Sequence of Neuraminidase (Influenza A virus (strain A/Brevig Mission/1/1918 H1N1) (Influenza Avirus (strain A/South Carolina/1/1918 H1N1)), UniProt Q9IGQ6) (Q9IGQ6 whole entry, the tested form may be a part): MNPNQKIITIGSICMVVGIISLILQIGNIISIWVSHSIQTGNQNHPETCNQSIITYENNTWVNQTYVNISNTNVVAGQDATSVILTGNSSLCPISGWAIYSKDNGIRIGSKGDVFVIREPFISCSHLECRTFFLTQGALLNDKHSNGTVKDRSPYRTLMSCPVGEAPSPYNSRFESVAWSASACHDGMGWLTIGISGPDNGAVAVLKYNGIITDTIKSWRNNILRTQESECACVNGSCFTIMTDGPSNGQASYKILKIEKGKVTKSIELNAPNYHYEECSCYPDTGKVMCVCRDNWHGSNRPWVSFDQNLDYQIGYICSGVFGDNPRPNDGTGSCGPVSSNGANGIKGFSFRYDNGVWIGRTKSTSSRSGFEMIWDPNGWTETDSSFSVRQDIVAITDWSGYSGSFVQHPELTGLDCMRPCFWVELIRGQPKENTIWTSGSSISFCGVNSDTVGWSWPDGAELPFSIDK

Clostridium perfringens [5] = assay: Inhibition of Clostridium perfringens ATCC 10543 sialidase Nan1 c-terminal catalytic domain using 4-methylumbelliferyl-alpha-D-N-acetylneuraminic acid sodium salt hydrate as substrate at IC50 concentration pre-incubated for 10 mins prior substrate addition by fluorimetric analysis; settings: TDE = time-dependent effect
[6] = Reversible inhibition of Clostridium perfringens ATCC 10543 sialidase Nan1 c-terminal catalytic domain using 4-methylumbelliferyl-alpha-D-N-acetylneuraminic acid sodium salt hydrate as substrate compound pre-incubated prior to substrate addition by fluorimetric analysis; settings: read-out: Ki(app)
[7] = target: Neuraminidase (Influenza A virus (strain A/Brevig Mission/1/1918 H1N1) (Influenza Avirus (strain A/South Carolina/1/1918 H1N1))) (UniProt Q9IGQ6); assay: Inhibition of recombinant influenza A virus H1N1 A/Bervig_Mission/1/18 sialidase activity using 4-methylumbelliferyl-alpha-D-N-acetylneuraminic acid sodium salt hydrate as substrate at 200 uM by fluorimetric analysis; settings: Influenza A virus (A/Brevig Mission/1/1918(H1N1))
Sequence of Neuraminidase (Influenza A virus (strain A/Brevig Mission/1/1918 H1N1) (Influenza Avirus (strain A/South Carolina/1/1918 H1N1))) (Q9IGQ6 whole entry): as the sequence (Q9IGQ6 whole entry, the tested form may be a part) above

[8] = Inhibition of alpha-glucosidase
[9] = Inhibition of beta-glucosidase at 200 uM
[10] = Inhibition of rhamnosidase at 200 uM
[11] = target: Neuraminidase (Influenza A virus (strain A/Brevig Mission/1/1918 H1N1) (Influenza Avirus (strain A/South Carolina/1/1918 H1N1))) (UniProt Q9IGQ6); assay: as §2; settings: Influenza A virus (A/Brevig Mission/1/1918(H1N1))
[12] = target: Neuraminidase (Influenza A virus (strain A/Brevig Mission/1/1918 H1N1) (Influenza Avirus (strain A/South Carolina/1/1918 H1N1))) (UniProt Q9IGQ6); assay: Noncompetitive inhibition of recombinant influenza A virus H1N1 A/Bervig_Mission/1/18 sialidase activity using 4-methylumbelliferyl-alpha-D-N-acetylneuraminic acid sodium salt hydrate as substrate by Lineweaver-Burk and Dixon plot analysis; settings: Influenza A virus (A/Brevig Mission/1/1918(H1N1))
[13] = Inhibition of alpha-glucosidase at 200 uM

SMILES | IC50 [1] [µM] | inhibition (Clostridium perfringens [2]) | Kic (Clostridium perfringens [3]) [µM] | IC50 [4] [µM] | inhibition (Clostridium perfringens [5]) | Ki [6] [µM] | inhibition [7] | IC50 [8] [µM] | inhibition [9] | inhibition [10] | inhibition [11] | inhibition [12] | inhibition [13]
CC(C)=CCC(OC(=O)C=C(C)C)c1coc(-c2cc(O)ccc2O)c1 (configuration not stated) [SHIKONOFURAN E] | 0.2 | Dose-dependent effect | 0.1 | > 100 | tde | 0.05 | inactive | 26.6 | inactive | inactive |  |  | 
CC(C)=CCCC1=CC(=O)c2c(O)ccc(O)c2C1=O [DEOXYSHIKONIN] | 27.5 | Dose-dependent effect | 15.9 | 63.4 | tde | 11.9 |  |  | inactive | inactive | Dose-dependent effect | Active | inactive
CC(C)=CC[C@@H](OC(=O)C(C)C)C1=CC(=O)c2c(O)ccc(O)c2C1=O [ISOBUTYLSHIKONIN] | 2.9 | Dose-dependent effect | 0.9 | 40.5 | tde | 0.26 |  | 144 | inactive | inactive | Dose-dependent effect | Active | 
CC(C)=CCC(OC(=O)C(C)C)c1coc(-c2cc(O)ccc2O)c1 (configuration not stated) [SHIKONOFURAN D] | 1 | Dose-dependent effect | 0.3 | > 100 | tde | 0.21 | inactive | 37.8 | inactive | inactive |  |  | 
OCC(CO)N[C@H]1C[C@](O)(CO)[C@@H](O)[C@H](O)[C@H]1O [VOGLIBOSE] |  |  |  |  |  |  |  | 23.4 |  |  |  |  | 
CC(C)=CC[C@@H](OC(=O)CC(C)(C)O)C1=CC(=O)c2c(O)ccc(O)c2C1=O [BETA-HYDROXYISOVALERYLSHIKONIN] | 3.4 | Dose-dependent effect | 0.8 | 40.5 | tde | 2.24 |  |  | inactive | inactive | Dose-dependent effect | Active | inactive
CC(=O)O[C@H](CC=C(C)C)C1=CC(=O)c2c(O)ccc(O)c2C1=O [ACETYLSHIKONIN] | 2.5 | Dose-dependent effect | 1.1 | 41.4 | tde | 1.01 |  | 158 | inactive | inactive | Dose-dependent effect | Active | 
CC(C)=CC[C@@H](O)C1=CC(=O)c2c(O)ccc(O)c2C1=O [SHIKONIN] | 53.8 | Dose-dependent effect | 21.4 | 34.1 | tde | 58.8 |  |  | inactive | inactive | Dose-dependent effect | Active | inactive
CC(C)=CCC(OC(=O)CC(C)C)c1coc(-c2cc(O)ccc2O)c1 (configuration not stated) [SHIKONOFURAN C] | 0.6 | Dose-dependent effect | 0.2 | > 100 | tde | 0.15 | inactive | 20.8 | inactive | inactive |  |  | 
CC(C)=CC[C@@H](OC(=O)C=C(C)C)C1=CC(=O)c2c(O)ccc(O)c2C1=O [DIMETHYLACRYLSHIKONIN] | 1.9 | Dose-dependent effect | 0.6 | 47.3 | tde | 1.75 |  | 141 | inactive | inactive | Dose-dependent effect | Active | 
